# Laboratory results from ChEMBL document CHEMBL3885861, “Open TG-GATES”.
# Species: Rattus norvegicus
# Assay: Open TG-GATES - Regimen: Daily Repeat
# Format: toxicity, organism-based, Sprague-Dawley
# Design: regimen Daily Repeat, gender Male, age 6 weeks
# Conditions: in vivo, po, route gavage; for APTT / Bas / Eos / Fbg / Hb / Ht / Lym / MCHC / MCV / Mono / Neu / PT / Plat / RBC / Ret / WBC: tissue Blood; for KIDNEY_L / KIDNEY_R / KIDNEY_TOTAL: tissue Kidney; for LIVER: tissue Liver; for ALP / ALT / AST / CRE / DBIL / GLC / IP / K / LDH / Na / PL / RALB / TBIL / TC / TG / TP / gamma-GTP: tissue Plasma
# [1] = 300 mg/kg, 72 h, dose level Middle, time 3 day
# [2] = 300 mg/kg, […], dose level Middle, time 7 day
# [3] = 300 mg/kg, […], dose level Middle, time 14 day
# [4] = 300 mg/kg, […], dose level Middle, time 28 day
# [5] = 1000 mg/kg, 72 h, dose level High, time 3 day
# [6] = 1000 mg/kg, […], dose level High, time 7 day
# [7] = 1000 mg/kg, […], dose level High, time 14 day
# [8] = 1000 mg/kg, […], dose level High, time 28 day
compound,measurement,setting,value
C#C[C@]1(O)CC[C@H]2[C@@H]3CCC4=Cc5oncc5C[C@]4(C)[C@H]3CC[C@@]21C [DANAZOL],TERMINAL_BW,[1],238.4 g
same,APTT,[1],22.7 s
same,Bas,[1],0%
same,Eos,[1],1%
same,Fbg,[1],355.8 mg/dL
same,Hb,[1],13.5 g/dL
same,Ht,[1],40.3%
same,Lym,[1],80%
same,MCHC,[1],33.4%
same,MCV,[1],62.4 fL
same,Mono,[1],2.4%
same,Neu,[1],15.8%
same,PT,[1],16.5 s
same,Plat,[1],115.8 x10_4/uL
same,RBC,[1],645.6 x10_4/ul
same,Ret,[1],6.6%
same,WBC,[1],87.1 x10_2/uL
same,KIDNEY_L,[1],1.1 g
same,KIDNEY_R,[1],1.1 g
same,KIDNEY_TOTAL,[1],2.2 g
same,LIVER,[1],12.4 g
same,ALP,[1],1638.6 IU/L
same,ALT,[1],45.2 IU/L
same,AST,[1],65.8 IU/L
same,CRE,[1],0.2 mg/dL
same,DBIL,[1],0 mg/dL
same,GLC,[1],180.2 mg/dL
same,IP,[1],7.9 mg/dL
same,K,[1],4.5 meq/L
same,LDH,[1],169.6 IU/L
same,Na,[1],141.6 meq/L
same,PL,[1],129.6 mg/dL
same,RALB,[1],3.1 g/dL
same,TBIL,[1],0.004 mg/dL
same,TC,[1],50.2 mg/dL
same,TG,[1],172.2 mg/dL
same,TP,[1],5.7 g/dL
same,gamma-GTP,[1],2 IU/L
same,TERMINAL_BW,[2],263.9 g
same,TERMINAL_BW,[3],303.4 g
same,TERMINAL_BW,[4],343.4 g
same,APTT,[2],25.7 s
same,Bas,[2],0%
same,Eos,[2],0.8%
same,Fbg,[2],360 mg/dL
same,Hb,[2],13.9 g/dL
same,Ht,[2],41.1%
same,Lym,[2],81.8%
same,MCHC,[2],33.8%
same,MCV,[2],61.8 fL
same,Mono,[2],2%
same,Neu,[2],14.8%
same,PT,[2],16.2 s
same,Plat,[2],127.5 x10_4/uL
same,RBC,[2],666.4 x10_4/ul
same,Ret,[2],5.3%
same,WBC,[2],104.2 x10_2/uL
same,APTT,[3],26.4 s
same,Bas,[3],0%
same,Eos,[3],0.8%
same,Fbg,[3],334.2 mg/dL
same,Hb,[3],14.6 g/dL
same,Ht,[3],41.2%
same,Lym,[3],85.2%
same,MCHC,[3],35.4%
same,MCV,[3],58.8 fL
same,Mono,[3],2.4%
same,Neu,[3],10.8%
same,PT,[3],17.3 s
same,Plat,[3],124.6 x10_4/uL
same,RBC,[3],701.4 x10_4/ul
same,Ret,[3],2.8%
same,WBC,[3],113.8 x10_2/uL
same,APTT,[4],26.1 s
same,Bas,[4],0%
same,Eos,[4],0.6%
same,Fbg,[4],310.8 mg/dL
same,Hb,[4],14.5 g/dL
same,Ht,[4],42.2%
same,Lym,[4],84.2%
same,MCHC,[4],34.5%
same,MCV,[4],54.1 fL
same,Mono,[4],1.8%
same,Neu,[4],12.4%
same,PT,[4],17.9 s
same,Plat,[4],108.2 x10_4/uL
same,RBC,[4],779.4 x10_4/ul
same,Ret,[4],2%
same,WBC,[4],79.9 x10_2/uL
same,KIDNEY_L,[2],1.2 g
same,KIDNEY_R,[2],1.2 g
same,KIDNEY_TOTAL,[2],2.4 g
same,KIDNEY_L,[3],1.3 g
same,KIDNEY_R,[3],1.3 g
same,KIDNEY_TOTAL,[3],2.6 g
same,KIDNEY_L,[4],1.4 g
same,KIDNEY_R,[4],1.3 g
same,KIDNEY_TOTAL,[4],2.7 g
same,LIVER,[2],13.6 g
same,LIVER,[3],14.9 g
same,LIVER,[4],14.9 g
same,ALP,[2],1469 IU/L
same,ALT,[2],42.6 IU/L
same,AST,[2],64 IU/L
same,CRE,[2],0.2 mg/dL
same,DBIL,[2],0 mg/dL
same,GLC,[2],181.6 mg/dL
same,IP,[2],6.5 mg/dL
same,K,[2],4.3 meq/L
same,LDH,[2],134.6 IU/L
same,Na,[2],142.2 meq/L
same,PL,[2],132.2 mg/dL
same,RALB,[2],3.1 g/dL
same,TBIL,[2],0.002 mg/dL
same,TC,[2],49.4 mg/dL
same,TG,[2],210.2 mg/dL
same,TP,[2],5.8 g/dL
same,gamma-GTP,[2],1.8 IU/L
same,ALP,[3],1443.4 IU/L
same,ALT,[3],35.6 IU/L
same,AST,[3],58 IU/L
same,CRE,[3],0.2 mg/dL
same,DBIL,[3],0 mg/dL
same,GLC,[3],170 mg/dL
same,IP,[3],6.8 mg/dL
same,K,[3],4.3 meq/L
same,LDH,[3],134.8 IU/L
same,Na,[3],141.8 meq/L
same,PL,[3],115 mg/dL
same,RALB,[3],3.1 g/dL
same,TBIL,[3],0 mg/dL
same,TC,[3],35.6 mg/dL
same,TG,[3],240.6 mg/dL
same,TP,[3],6 g/dL
same,gamma-GTP,[3],2.4 IU/L
same,ALP,[4],1201.6 IU/L
same,ALT,[4],35.6 IU/L
same,AST,[4],57.6 IU/L
same,CRE,[4],0.2 mg/dL
same,DBIL,[4],0 mg/dL
same,GLC,[4],178 mg/dL
same,IP,[4],5.8 mg/dL
same,K,[4],4 meq/L
same,LDH,[4],121.6 IU/L
same,Na,[4],142.2 meq/L
same,PL,[4],130.4 mg/dL
same,RALB,[4],3.1 g/dL
same,TBIL,[4],0.002 mg/dL
same,TC,[4],41.4 mg/dL
same,TG,[4],280.2 mg/dL
same,TP,[4],6.2 g/dL
same,gamma-GTP,[4],2.8 IU/L
same,TERMINAL_BW,[5],232.8 g
same,APTT,[5],23.9 s
same,Bas,[5],0%
same,Eos,[5],1%
same,Fbg,[5],355.8 mg/dL
same,Hb,[5],13.1 g/dL
same,Ht,[5],39.4%
same,Lym,[5],83%
same,MCHC,[5],33.3%
same,MCV,[5],63 fL
same,Mono,[5],3%
same,Neu,[5],12.2%
same,PT,[5],16.6 s
same,Plat,[5],122.2 x10_4/uL
same,RBC,[5],626 x10_4/ul
same,Ret,[5],5.3%
same,WBC,[5],100.4 x10_2/uL
same,KIDNEY_L,[5],1.1 g
same,KIDNEY_R,[5],1.1 g
same,KIDNEY_TOTAL,[5],2.2 g
same,LIVER,[5],13.1 g
same,ALP,[5],1658.2 IU/L
same,ALT,[5],39.2 IU/L
same,AST,[5],60.6 IU/L
same,CRE,[5],0.2 mg/dL
same,DBIL,[5],0 mg/dL
same,GLC,[5],173.4 mg/dL
same,IP,[5],7.6 mg/dL
same,K,[5],4.5 meq/L
same,LDH,[5],153.4 IU/L
same,Na,[5],141 meq/L
same,PL,[5],116.2 mg/dL
same,RALB,[5],3.1 g/dL
same,TBIL,[5],0 mg/dL
same,TC,[5],47.2 mg/dL
same,TG,[5],132.6 mg/dL
same,TP,[5],5.8 g/dL
same,gamma-GTP,[5],2 IU/L
same,TERMINAL_BW,[6],261.4 g
same,TERMINAL_BW,[7],289.1 g
same,TERMINAL_BW,[8],372.5 g
same,APTT,[6],25.7 s
same,Bas,[6],0%
same,Eos,[6],0.8%
same,Fbg,[6],351.6 mg/dL
same,Hb,[6],14 g/dL
same,Ht,[6],41.5%
same,Lym,[6],86.4%
same,MCHC,[6],33.8%
same,MCV,[6],60 fL
same,Mono,[6],1.6%
same,Neu,[6],10.4%
same,PT,[6],16.7 s
same,Plat,[6],143.9 x10_4/uL
same,RBC,[6],693.2 x10_4/ul
same,Ret,[6],4.9%
same,WBC,[6],103.6 x10_2/uL
same,APTT,[7],28.9 s
same,Bas,[7],0%
same,Eos,[7],0.8%
same,Fbg,[7],345.6 mg/dL
same,Hb,[7],14.8 g/dL
same,Ht,[7],42.1%
same,Lym,[7],86.8%
same,MCHC,[7],35.2%
same,MCV,[7],57.3 fL
same,Mono,[7],2.2%
same,Neu,[7],9.6%
same,PT,[7],17.1 s
same,Plat,[7],119 x10_4/uL
same,RBC,[7],734.6 x10_4/ul
same,Ret,[7],2.4%
same,WBC,[7],81.2 x10_2/uL
same,APTT,[8],27.7 s
same,Bas,[8],0%
same,Eos,[8],1.2%
same,Fbg,[8],320.6 mg/dL
same,Hb,[8],14.3 g/dL
same,Ht,[8],41.9%
same,Lym,[8],79.4%
same,MCHC,[8],34.1%
same,MCV,[8],56.1 fL
same,Mono,[8],3%
same,Neu,[8],15.8%
same,PT,[8],18.2 s
same,Plat,[8],112.3 x10_4/uL
same,RBC,[8],749 x10_4/ul
same,Ret,[8],2.2%
same,WBC,[8],69.9 x10_2/uL
same,KIDNEY_L,[6],1.1 g
same,KIDNEY_R,[6],1.2 g
same,KIDNEY_TOTAL,[6],2.3 g
same,KIDNEY_L,[7],1.3 g
same,KIDNEY_R,[7],1.4 g
same,KIDNEY_TOTAL,[7],2.7 g
same,KIDNEY_L,[8],1.5 g
same,KIDNEY_R,[8],1.5 g
same,KIDNEY_TOTAL,[8],3 g
same,LIVER,[6],13.2 g
same,LIVER,[7],15 g
same,LIVER,[8],18 g
same,ALP,[6],1593 IU/L
same,ALT,[6],36.4 IU/L
same,AST,[6],61.2 IU/L
same,CRE,[6],0.1 mg/dL
same,DBIL,[6],0 mg/dL
same,GLC,[6],184 mg/dL
same,IP,[6],7 mg/dL
same,K,[6],4.3 meq/L
same,LDH,[6],136.6 IU/L
same,Na,[6],142.4 meq/L
same,PL,[6],121 mg/dL
same,RALB,[6],3.2 g/dL
same,TBIL,[6],0 mg/dL
same,TC,[6],44.2 mg/dL
same,TG,[6],200.6 mg/dL
same,TP,[6],5.8 g/dL
same,gamma-GTP,[6],2.4 IU/L
same,ALP,[7],1541.2 IU/L
same,ALT,[7],37.6 IU/L
same,AST,[7],58.6 IU/L
same,CRE,[7],0.2 mg/dL
same,DBIL,[7],0 mg/dL
same,GLC,[7],174.8 mg/dL
same,IP,[7],7.2 mg/dL
same,K,[7],4.3 meq/L
same,LDH,[7],133.8 IU/L
same,Na,[7],142.2 meq/L
same,PL,[7],124.2 mg/dL
same,RALB,[7],3.1 g/dL
same,TBIL,[7],0 mg/dL
same,TC,[7],38.6 mg/dL
same,TG,[7],255.8 mg/dL
same,TP,[7],6.2 g/dL
same,gamma-GTP,[7],2.8 IU/L
same,ALP,[8],1028.8 IU/L
same,ALT,[8],37.6 IU/L
same,AST,[8],55.8 IU/L
same,CRE,[8],0.2 mg/dL
same,DBIL,[8],0 mg/dL
same,GLC,[8],177.8 mg/dL
same,IP,[8],6.6 mg/dL
same,K,[8],4.2 meq/L
same,LDH,[8],122.6 IU/L
same,Na,[8],141.6 meq/L
same,PL,[8],133.6 mg/dL
same,RALB,[8],3.2 g/dL
same,TBIL,[8],0 mg/dL
same,TC,[8],41.4 mg/dL
same,TG,[8],275.4 mg/dL
same,TP,[8],6.4 g/dL
same,gamma-GTP,[8],3.6 IU/L
